The results in this text go back to patent US12655153B2, “Solid forms of a HBV core protein allosteric modifier” (Hoffmann-La Roche Inc., priority 2019, dated 2026).

Common to all, as to assay type: physicochemical
The nature of data set [1]: Apparent solubility study in pH buffers (50 mM), 25° C., 24 hours, HPLC. The conditions noted are these: for Final pH: after 24 hours; for Solubility: 25° C. Here is the method:
Apparent solubility was determined by suspending 5 mg of compound (I) in different bio-relevant media including pH buffers (50 mM). The suspensions were equilibrated at 25° C. for 24 hours. The suspensions were then filtered through a 0.22 μm PVDF filter into a 2-mL HPLC vial. The quantification of the filtrate was conducted by HPLC with reference to a standard solution.

A short description of data set [2]: Apparent solubility in purified water, 25° C., 24 hours, HPLC, residue by XRPD. The conditions noted are these: for Solubility / Final pH / XRPD of residue: purified water; for Solubility: 25° C., 24 hours; for Final pH / XRPD of residue: after 24 hours. Here is the method:
Apparent solubility in water was determined by suspending 5 mg of compound (I) in purified water. The suspensions were equilibrated at 25° C. for 24 hours. The suspensions were then filtered through a 0.22 μm PVDF filter into a 2-mL HPLC vial. The quantitation of the filtrate was conducted by HPLC with reference to a standard solution. The solids were analyzed by XRPD.

Data set [3] can be described thus: Physical stability of solid forms (general statements, accelerated and long term stability testing). The conditions noted are these: conditions not stated. The source says: Developing novel forms of compound (I) with good processability or acceptable aqueous solubility is one of the objectives of current invention. Some novel solid forms enhance the developability of compound (I) fundamentally. The physical stability of drug substances is an integral part of the systematic approach to the stability evaluation of pharmaceuticals due to its potential impacts on drug chemical stability performance and safety. The greater the stability is, the longer the shelf life could be. Therefore, the accelerated and long term stability testing used in this invention could be used to predict shelf lives.

Data set [4] can be described thus: Stability of solid forms, stability chamber 25° C. and 60%-RH, XRPD after 1 month. The conditions noted are these: 25° C./60%-RH. Here is the method: 20 mg of compound (I) in different solid forms were stored in a stability chamber with temperature and humidity controlled at 25° C. and 60%-RH. After 1 month, the samples were analyzed by XRPD to check their solid form and compared with their initial solid form.

Data set [5] is described as follows: Stability of solid forms, stability chamber 40° C. and 75%-RH, XRPD after 1 month. The conditions noted are these: 40° C./75%-RH. Here is the method: 40 mg of compound (I) in different solid forms were stored in a stability chamber with temperature and humidity controlled at 40° C. and 75%-RH, respectively. After 1 month, the samples were analyzed by XRPD to check their solid form and compared with their initial solid form.

Where [6] appears, read: listed as Example 3, Form A of compound (I).
[7] abbreviates: listed as Example 1, Form D of compound (I).
The mark [8] stands for this setting: listed as Example 16, Form H of compound (I).

Values after ≈ are worked out from the molar mass of the structure shown. “Also recorded” adds a separate entry of the source.

As a reminder, the solubility is how much of the substance goes into solution per volume. By Solubility is commonly meant the concentration that dissolves in the medium under given conditions. Consider `CCOC(=O)C1=C(CN2CCN3C(=O)N(CC(C)(C)C(=O)O)C[C@@H]3C2)NC(c2nccs2)=N[C@H]1c1cccc(F)c1C` [Form A, 3-[(8aS)-7-[[(4S)-5-ethoxycarbonyl-4-(3-fluoro-2-methyl-phenyl)-2-thiazol-2-yl-1,4-dihydropyrimidin-6-yl]methyl]-3-oxo-5,6,8,8a-tetrahydro-1H-imidazo[1,5-a]pyrazin-2-yl]-2,2-dimethyl-propanoic acid], for which, in data set [1] (pH 1 buffer (50 mM), 25 °C, pH 1, aqueous buffer, thermodynamic from solid, pH 1 buffer, 24 hours), the solubility at 24 h worked out at 940 µg/mL (≈ 1570 µM). The “Final pH” value turned out to be 1.05 in data set [1] (pH 1 buffer, listed as Example 3, Form A of compound (I)); 2.97 in data set [1] (pH 3 buffer, listed as Example 3, Form A of compound (I)); 4.99 in data set [1] (pH 5 buffer, listed as Example 3, Form A of compound (I)); 6.98 in data set [1] (pH 7 buffer, listed as Example 3, Form A of compound (I)); 8.46 in data set [1] (pH 9 buffer, listed as Example 3, Form A of compound (I)); 6.97 in data set [2] (setting [6]). In addition, the Solubility in data set [1] (pH 3 buffer, 24 hours, listed as Example 3, Form A of compound (I)) turned out to be 66 µg/mL (≈ 110 µM); in data set [1] (pH 5 buffer, 24 hours, listed as Example 3, Form A of compound (I)), 4 µg/mL (≈ 6.68 µM); in data set [1] (pH 7 buffer, 24 hours, listed as Example 3, Form A of compound (I)), 72 µg/mL (≈ 120 µM); in data set [1] (pH 9 buffer, 24 hours, listed as Example 3, Form A of compound (I)) it was 4820 µg/mL (≈ 8050 µM); in data set [2] (setting [6]) it was 50 µg/mL (≈ 83.5 µM). In addition, in data set [2] (setting [6]), the XRPD of residue result was “Form A”.
`CCOC(=O)C1=C(CN2CCN3C(=O)N(CC(C)(C)C(=O)O)C[C@@H]3C2)NC(c2nccs2)=N[C@H]1c1cccc(F)c1C` [Form Amorphous, 3-[(8aS)-7-[[(4S)-5-ethoxycarbonyl-4-(3-fluoro-2-methyl-phenyl)-2-thiazol-2-yl-1,4-dihydropyrimidin-6-yl]methyl]-3-oxo-5,6,8,8a-tetrahydro-1H-imidazo[1,5-a]pyrazin-2-yl]-2,2-dimethyl-propanoic acid]: the “Physical / solid state stability” value in data set [3] is listed as “significantly improved stability compared with Form D”.
Take `CCOC(=O)C1=C(CN2CCN3C(=O)N(CC(C)(C)C(=O)O)C[C@@H]3C2)NC(c2nccs2)=N[C@H]1c1cccc(F)c1C` [Form D, 3-[(8aS)-7-[[(4S)-5-ethoxycarbonyl-4-(3-fluoro-2-methyl-phenyl)-2-thiazol-2-yl-1,4-dihydropyrimidin-6-yl]methyl]-3-oxo-5,6,8,8a-tetrahydro-1H-imidazo[1,5-a]pyrazin-2-yl]-2,2-dimethyl-propanoic acid]: in data set [3], the “Physical / solid state stability” value is reported as “physically unstable”. The “Physical stability (solid form by XRPD)” value in data set [4] (setting [7]) and in data set [5] (setting [7]) was “solid form change” in each case. Further, the “Solid form stability compared with Form D” value in data set [5] is listed as “better solid form stability than the original Form D”.
For `CCOC(=O)C1=C(CN2CCN3C(=O)N(CC(C)(C)C(=O)O)C[C@@H]3C2)NC(c2nccs2)=N[C@H]1c1cccc(F)c1C` [Form H, 3-[(8aS)-7-[[(4S)-5-ethoxycarbonyl-4-(3-fluoro-2-methyl-phenyl)-2-thiazol-2-yl-1,4-dihydropyrimidin-6-yl]methyl]-3-oxo-5,6,8,8a-tetrahydro-1H-imidazo[1,5-a]pyrazin-2-yl]-2,2-dimethyl-propanoic acid], the “Physical / solid state stability” value in data set [3] is “improved stability compared with Form D; also recorded: acceptable solid state stability”. In addition, the “Stability compared with Form D” value in data set [4] is listed as “better stability than the original Form D”. The “Physical stability (solid form by XRPD)” value in data set [4] (setting [8]) was “no solid form change”. The Solubility in data set [1] (pH 1 buffer, 24 hours, listed as Example 16, Form H of compound (I)) is 1581 µg/mL (≈ 2640 µM); in data set [1] (pH 3 buffer, 24 hours, listed as Example 16, Form H of compound (I)), 56 µg/mL (≈ 93.5 µM); in data set [1] (pH 5 buffer, 24 hours, listed as Example 16, Form H of compound (I)), 6 µg/mL (≈ 10 µM); in data set [1] (pH 7 buffer, 24 hours, listed as Example 16, Form H of compound (I)), 244 µg/mL (≈ 408 µM); in data set [1] (pH 9 buffer, 24 hours, listed as Example 16, Form H of compound (I)), more than 10000 µg/mL; in data set [2] (setting [8]), 453 µg/mL (≈ 757 µM). Also, the “Final pH” value in data set [1] (pH 1 buffer, listed as Example 16, Form H of compound (I)) was determined as 1.08; in data set [1] (pH 3 buffer, listed as Example 16, Form H of compound (I)), 3.01; in data set [1] (pH 5 buffer, listed as Example 16, Form H of compound (I)) it was 5.03; in data set [1] (pH 7 buffer, listed as Example 16, Form H of compound (I)) it was 6.97; in data set [1] (pH 9 buffer, listed as Example 16, Form H of compound (I)) it was 8.90; in data set [2] (setting [8]), 7.35. In addition, in data set [1] (pH7 and pH9), the “Solubility compared with Form A” value was “higher solubility than Form A at pH7 and pH9”. Also, the XRPD of residue result in data set [2] (setting [8]) is “Form H”. Moreover, the “Water solubility compared with Form A” value in data set [2] (water) is given as “unexpected higher water solubility than Form A; also recorded: significant higher water solubility than the anhydrate Form A”.
For the molecule `CCOC(=O)C1=C(CN2CCN3C(=O)N(CC(C)(C)C(=O)O)C[C@@H]3C2)NC(c2nccs2)=N[C@H]1c1cccc(F)c1C` [Form Q, 3-[(8aS)-7-[[(4S)-5-ethoxycarbonyl-4-(3-fluoro-2-methyl-phenyl)-2-thiazol-2-yl-1,4-dihydropyrimidin-6-yl]methyl]-3-oxo-5,6,8,8a-tetrahydro-1H-imidazo[1,5-a]pyrazin-2-yl]-2,2-dimethyl-propanoic acid], the Solubility in data set [1] (pH 1 buffer, 24 hours, listed as Example 24, potassium salt Form Q of compound (I)) is 1560 µg/mL; in data set [1] (pH 7 buffer, 24 hours, listed as Example 24, potassium salt Form Q of compound (I)), 3580 µg/mL; in data set [1] (pH 9 buffer, 24 hours, listed as Example 24, potassium salt Form Q of compound (I)), more than 10000 µg/mL. Besides, the “Final pH” value in data set [1] (pH 1 buffer, listed as Example 24, potassium salt Form Q of compound (I)) turned out to be 1.1; in data set [1] (pH 3 buffer, listed as Example 24, potassium salt Form Q of compound (I)), 3.49; in data set [1] (pH 5 buffer, listed as Example 24, potassium salt Form Q of compound (I)) it was 5.17; in data set [1] (pH 7 buffer, listed as Example 24, potassium salt Form Q of compound (I)), 6.97; in data set [1] (pH 9 buffer, listed as Example 24, potassium salt Form Q of compound (I)), 8.71.
